In patent US8609647B2, “Nitrogen-containing spirocyclic compounds and pharmaceutical uses thereof” (Japan Tobacco Inc., priority 2009, dated 2013):
pIC50: −log10 of the molar value.

Biological target: hJAK3 kinase domain (aa781-end) (Homo sapiens (Human), UniProt P52333)
Test: JAK3 activity inhibition, kinase reaction (HTRF, TK substrate-biotin)
Protocol: JAK3 activity inhibitory effects of test compounds were evaluated by the following kinase reactions.
In the kinase reactions, fused proteins (6His tag-fused hJAK3 kinase domain (aa781-end)) which were coexpressed in Sf21 cells and purified by Ni2+/NTA agarose were used.
A well in which ATP was not added was set out as a blank well.
Plates were let stand at room temperature for 10 minutes from starting reactions.
One hour after the addition of the buffer for detection, fluorescence counts of each well were measured by a fluorescence microplate reader.
Data were obtained by deducting the average Ratio of a blank well from Ratio of each well.

hJAK3 kinase domain (aa781-end), sequence (P52333 781-1124 limits assumed): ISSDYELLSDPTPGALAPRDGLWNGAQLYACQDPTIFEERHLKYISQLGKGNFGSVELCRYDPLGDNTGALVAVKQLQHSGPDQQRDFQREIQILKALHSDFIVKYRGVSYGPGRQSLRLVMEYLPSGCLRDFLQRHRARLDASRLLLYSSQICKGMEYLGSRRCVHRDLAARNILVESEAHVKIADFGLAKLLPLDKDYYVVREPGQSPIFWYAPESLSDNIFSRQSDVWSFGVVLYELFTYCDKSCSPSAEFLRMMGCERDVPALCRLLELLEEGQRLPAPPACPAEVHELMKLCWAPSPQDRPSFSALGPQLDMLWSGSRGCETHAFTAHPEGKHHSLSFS

Compound | pIC50
N#CCC(=O)N1CCCCC12CCN(c1c(Cl)cnc3[nH]ncc13)C2 (racemic) [Compound 93] | 6.96
N#CCCN1CCCC12CCN(c1ncnc3[nH]ccc13)C2 (racemic) [Compound 53] | 7.25
c1ccc(CN2CCCC23CCN(c2ncnc4[nH]ccc24)C3)cc1 (racemic) [Compound 90] | 6.26
